From patent US20240277846A1, “MAGNETIC BIOMOLECULE-METAL ION SELF-ASSEMBLED COMPLEX FOR TREATMENT” (priority 2023, published 2024)
Counter-ions that a name gives are not always drawn. One block for each compound: values may come before it.

How the values were obtained:
macrophages = assay: Macrophage polarization (immunofluorescence Arg-1/iNOS, flow cytometry); type: cell-based; settings: immunofluorescence staining
From the text: FIG. 15 to FIG. 17 show experiments according to each of the treatment conditions in cells before experimenting in rats according to Experimental Example 2 below. As shown in a following table 6, the conditions were divided into the control group: PBS only based treatment, Fe-ATP based treatment, ATP only based treatment, FeCl2 based treatment, and Fe3O4 based treatment. FIG. 15 is the result of identifying disassembling of the Fe-ATP self-assembly. Referring to FIG. 15, under each treatment condition, an experiment result was identified via immunofluorescence staining of […] (M2 polarization marker), iNOS (M1 polarization marker), and Dapi. […] This was identified through flow cytometry.

P2Y1 = target: T1, P2Y1 (Homo sapiens, UniProt P47900); assay: Western blotting of macrophage signaling, P2Y1; type: cell-based; settings: low concentration
T1 construct: endogenous in cells
T1 sequence (P47900 whole entry, species assumed): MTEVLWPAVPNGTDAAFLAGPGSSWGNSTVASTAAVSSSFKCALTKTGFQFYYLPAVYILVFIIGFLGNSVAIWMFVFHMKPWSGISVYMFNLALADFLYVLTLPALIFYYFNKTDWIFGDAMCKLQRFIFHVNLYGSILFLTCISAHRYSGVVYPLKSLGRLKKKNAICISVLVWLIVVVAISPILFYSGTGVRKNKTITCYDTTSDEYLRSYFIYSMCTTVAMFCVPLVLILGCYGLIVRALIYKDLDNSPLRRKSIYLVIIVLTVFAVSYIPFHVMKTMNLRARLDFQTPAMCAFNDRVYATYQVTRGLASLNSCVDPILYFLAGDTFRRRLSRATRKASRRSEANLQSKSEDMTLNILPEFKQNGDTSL
From the text: (§1) It was identified that the Fe-ATP self-assembly was disassembled into the ATP and the iron ion such that the ATP was released therefrom, and this enabled AIP-mediated anti-inflammatory polarization of macrophages.

P2X7 = target: T2, P2X7 (Homo sapiens, UniProt Q99572); assay: Western blotting of macrophage signaling, P2X7; type: cell-based; settings: low concentration
T2 construct: endogenous in cells
T2 sequence (Q99572 1-595): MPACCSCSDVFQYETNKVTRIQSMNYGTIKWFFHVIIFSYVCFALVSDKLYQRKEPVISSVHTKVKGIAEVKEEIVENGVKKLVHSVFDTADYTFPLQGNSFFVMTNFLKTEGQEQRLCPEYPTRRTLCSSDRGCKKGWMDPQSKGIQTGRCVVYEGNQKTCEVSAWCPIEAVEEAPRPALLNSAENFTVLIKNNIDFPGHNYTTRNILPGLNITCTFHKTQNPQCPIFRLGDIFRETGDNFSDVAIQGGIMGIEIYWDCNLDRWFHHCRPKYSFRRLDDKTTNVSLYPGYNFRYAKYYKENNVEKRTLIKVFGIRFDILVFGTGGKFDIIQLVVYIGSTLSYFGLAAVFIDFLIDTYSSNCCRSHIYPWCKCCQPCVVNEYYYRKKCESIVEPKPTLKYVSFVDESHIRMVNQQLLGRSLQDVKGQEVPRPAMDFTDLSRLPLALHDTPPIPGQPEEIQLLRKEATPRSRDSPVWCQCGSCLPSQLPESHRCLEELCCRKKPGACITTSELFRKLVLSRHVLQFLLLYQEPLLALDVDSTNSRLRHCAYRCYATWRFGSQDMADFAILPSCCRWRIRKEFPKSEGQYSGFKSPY
From the text: as §1

stem cells = assay: Osteogenic differentiation of stem cells (RUNX2, osteocalcin immunofluorescence, ALP staining); type: cell-based
From the text: FIG. 27 and FIG. 28 show experiments according to each of treatment conditions in cells before experimenting in rabbits according to Experimental Example 3 below. As shown in a following table 7, the treatment conditions include treatment with only PBS as a control group, treatment with Fe-AMP, treatment with AMP only, treatment with a combination of adenosine and PO4 (Adenosine+PO4), treatment with Adenosine, treatment with PO4, treatment with FeCl2, and treatment with an osteogenic induction medium. In this regard, FeCl2 was disassembled into Fe^2+ and Cl—. Thus, the treatment with FeCl2 was added to compare the released Fe^2+ therefrom with the Fe^2+ released from the […]. […] The adenosine obtained via decomposition of the AMP released from the Fe-AMP self-assembly was similar to osteogenic differentiation medium, and was analyzed via actin and dapi-positive nuclei and ALP chemical staining along with immunofluorescence staining of RUNX2 and osteocalcin. […] In other words, the Fe-AMP self-assembly induces osteogenic differentiation of stem cells through adenosine signaling. This was identified via immunofluorescence staining of RUNX2 and osteocalcin along with actin, dapi-positive nuclei, and ALP chemical staining.

ROS = assay: IVIS L-012 ROS signal analysis in vivo; design: species or system mouse; settings: 2 hours after the injection
Method: Luminescent probes L-012 (Wako Chemical, Korea) were dissolved in […] a thus prepared solution was maintained in a fresh state just before the experiment. In a 50 […] injection volume, 25 mg/kg thereof was administered subcutaneously to a back of a mouse. Chemiluminescence (CL) release assessment was started immediately after the injection of L-012 using indiGOTM software and IVIS (In vivo Imaging System, NightOWL II LB 983, BERTHOLD Technologies GmbH, Germany). To collect sufficient CL release data, the mouse was exposed thereto for 20 seconds each time. CL released from the mouse skin was recorded and visualized in real time, and then the CL released in an area of interest was quantified as total flux (photons/second).

hMSCs = assay: Western blotting of osteogenic differentiation via adenosine-A2B receptor signaling; type: cell-based

P2Y1 signaling (P2Y1): stimulated P2Y1 signaling
P2X7 signaling (P2X7): inhibited P2X7 signaling
SMILES: Nc1ncnc2c1ncn2[C@@H]1O[C@H](COP(=O)([O-])OP(=O)([O-])OP(=O)(O)O)[C@@H](O)[C@H]1O.[Na+].[Na+] [ATP, Adenosine 5′-triphosphate disodium salt]
Arg-1 (M2 polarization marker) expression (macrophages): strongly expressed

SMILES: Nc1ncnc2c1ncn2[C@@H]1O[C@H](CO)[C@@H](O)[C@H]1O [Adenosine]
Osteogenic differentiation of stem cells (stem cells): induced the osteogenic differentiation to a similar level thereto

SMILES: COc1cccc2c1C(=O)c1c(O)c3c(c(O)c1C2=O)C[C@@](O)(C(=O)CO)C[C@@H]3O[C@H]1C[C@H](N)[C@H](O)[C@H](C)O1 [Doxorubicin (DOX), Doxorubicin hydrochloride]
ROS production in vivo (L-012 signal) (ROS): has little effect on the ROS release in a short period of time

SMILES: [Cl][Fe][Cl] [FeCl2, Iron(II) chloride]
Arg-1 (M2 polarization marker) expression (macrophages): not expressed

SMILES: CCCn1c(=O)[nH]c2nc(-c3ccc(S(=O)(=O)N4CCN(c5ccc(Cl)cc5)CC4)cc3)[nH]c2c1=O [PSB 603]
Osteogenic differentiation of hMSCs (hMSCs): osteogenic differentiation of hMSCs was inhibited
